Experimental data taken from US10702506B2, “Small molecule inhibitors of pendrin ion exchange and pharmaceutical compositions” (THE REGENTS OF THE UNIVERSITY OF CALIFORNIA, priority 2016, dated 2020).

Key:
pendrin = target: T1, pendrin (Homo sapiens, UniProt O43511); test: BCECF assay of Cl−/HCO3− exchange in primary HBE and CFBE cell cultures; assay type: cell-based; design: endogenous in cells; host or cells: primary human bronchial epithelial cultures from non-CF (HBE) and CF (CFBE) donors, with or without IL-13; settings: 25 μM
T1 sequence (O43511 1-780): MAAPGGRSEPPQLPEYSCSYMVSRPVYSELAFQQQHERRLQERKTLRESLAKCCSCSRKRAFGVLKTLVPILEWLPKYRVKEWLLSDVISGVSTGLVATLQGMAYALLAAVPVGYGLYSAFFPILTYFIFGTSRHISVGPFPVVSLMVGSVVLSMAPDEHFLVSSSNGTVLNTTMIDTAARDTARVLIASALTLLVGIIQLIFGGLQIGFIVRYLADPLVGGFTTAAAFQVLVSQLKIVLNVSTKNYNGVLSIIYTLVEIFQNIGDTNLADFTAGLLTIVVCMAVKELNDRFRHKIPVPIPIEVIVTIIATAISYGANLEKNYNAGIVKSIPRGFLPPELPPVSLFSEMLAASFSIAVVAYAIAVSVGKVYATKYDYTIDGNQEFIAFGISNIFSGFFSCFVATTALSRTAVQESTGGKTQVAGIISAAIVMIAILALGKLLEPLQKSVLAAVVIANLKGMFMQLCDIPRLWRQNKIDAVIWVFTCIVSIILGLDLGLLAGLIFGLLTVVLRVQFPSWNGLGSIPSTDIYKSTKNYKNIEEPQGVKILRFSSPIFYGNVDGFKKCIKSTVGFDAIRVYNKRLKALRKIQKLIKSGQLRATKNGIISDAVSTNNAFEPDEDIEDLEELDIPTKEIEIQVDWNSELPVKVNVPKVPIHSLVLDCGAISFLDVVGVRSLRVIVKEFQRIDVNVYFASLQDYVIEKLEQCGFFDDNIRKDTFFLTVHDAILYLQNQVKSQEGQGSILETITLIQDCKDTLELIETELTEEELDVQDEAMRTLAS
Procedure: Bronchial tissues were obtained from non-CF (without significant airway disease) and CF subjects following lung transplantation, or from lungs donated for transplantation but subsequently found to be unsuitable for that purpose. Non-CF and CF human bronchial epithelial (HBE and CFBE, respectively) cell cultures were grown at an air-liquid interface as described in detail. At 21 days post-seeding, cells typically formed a tight epithelium (RTE>1000 Ωcm^2). In some experiments, the culture medium was supplemented with 10 ng/ml recombinant human IL-13 (Peprotech, Rocky Hill, N.J.) for 7 days starting at day 21 of culture. […] Pendrin transcript levels in human primary cells were measured by Taqman quantitative PCR using the Hs00166504_m1 probe set (ThermoFisher Scientific, Grand Island, N.Y.) at the UCSF Helen Diller Cancer Center Genome Analysis Core. […]
Cytoplasmic pH (pHi) was measured to assay pendrin-mediated Cl^−/HCO3^− exchange in pendrin-expressing FRT cells and primary cell cultures using the pH-sensitive fluorescent probe BCECF. […] BCECF pH-sensitive fluorescence (490 nm excitation, 535 nm emission) was acquired at 0.5 Hz, with control experiments confirming that BCECF pH-insensitive fluorescence was not altered during exchange protocols. In some experiments pHi changes in the absence of HCO3^− were measured using buffers in which NaCl or Na gluconate replaced NaHCO3^−. […]

CFTR = target: T2, CFTR (Homo sapiens, UniProt P13569); test: Short-circuit current (Isc) analysis in IL-13-treated HBE cells, forskolin / CFTRinh-172 response; assay type: cell-based; settings: 25 μM, 30 min pre-treatment
T2 construct: endogenous in cells; host or cells: IL-13-treated primary HBE cell cultures (HBE = non-CF donors)
T2 sequence (P13569 whole entry): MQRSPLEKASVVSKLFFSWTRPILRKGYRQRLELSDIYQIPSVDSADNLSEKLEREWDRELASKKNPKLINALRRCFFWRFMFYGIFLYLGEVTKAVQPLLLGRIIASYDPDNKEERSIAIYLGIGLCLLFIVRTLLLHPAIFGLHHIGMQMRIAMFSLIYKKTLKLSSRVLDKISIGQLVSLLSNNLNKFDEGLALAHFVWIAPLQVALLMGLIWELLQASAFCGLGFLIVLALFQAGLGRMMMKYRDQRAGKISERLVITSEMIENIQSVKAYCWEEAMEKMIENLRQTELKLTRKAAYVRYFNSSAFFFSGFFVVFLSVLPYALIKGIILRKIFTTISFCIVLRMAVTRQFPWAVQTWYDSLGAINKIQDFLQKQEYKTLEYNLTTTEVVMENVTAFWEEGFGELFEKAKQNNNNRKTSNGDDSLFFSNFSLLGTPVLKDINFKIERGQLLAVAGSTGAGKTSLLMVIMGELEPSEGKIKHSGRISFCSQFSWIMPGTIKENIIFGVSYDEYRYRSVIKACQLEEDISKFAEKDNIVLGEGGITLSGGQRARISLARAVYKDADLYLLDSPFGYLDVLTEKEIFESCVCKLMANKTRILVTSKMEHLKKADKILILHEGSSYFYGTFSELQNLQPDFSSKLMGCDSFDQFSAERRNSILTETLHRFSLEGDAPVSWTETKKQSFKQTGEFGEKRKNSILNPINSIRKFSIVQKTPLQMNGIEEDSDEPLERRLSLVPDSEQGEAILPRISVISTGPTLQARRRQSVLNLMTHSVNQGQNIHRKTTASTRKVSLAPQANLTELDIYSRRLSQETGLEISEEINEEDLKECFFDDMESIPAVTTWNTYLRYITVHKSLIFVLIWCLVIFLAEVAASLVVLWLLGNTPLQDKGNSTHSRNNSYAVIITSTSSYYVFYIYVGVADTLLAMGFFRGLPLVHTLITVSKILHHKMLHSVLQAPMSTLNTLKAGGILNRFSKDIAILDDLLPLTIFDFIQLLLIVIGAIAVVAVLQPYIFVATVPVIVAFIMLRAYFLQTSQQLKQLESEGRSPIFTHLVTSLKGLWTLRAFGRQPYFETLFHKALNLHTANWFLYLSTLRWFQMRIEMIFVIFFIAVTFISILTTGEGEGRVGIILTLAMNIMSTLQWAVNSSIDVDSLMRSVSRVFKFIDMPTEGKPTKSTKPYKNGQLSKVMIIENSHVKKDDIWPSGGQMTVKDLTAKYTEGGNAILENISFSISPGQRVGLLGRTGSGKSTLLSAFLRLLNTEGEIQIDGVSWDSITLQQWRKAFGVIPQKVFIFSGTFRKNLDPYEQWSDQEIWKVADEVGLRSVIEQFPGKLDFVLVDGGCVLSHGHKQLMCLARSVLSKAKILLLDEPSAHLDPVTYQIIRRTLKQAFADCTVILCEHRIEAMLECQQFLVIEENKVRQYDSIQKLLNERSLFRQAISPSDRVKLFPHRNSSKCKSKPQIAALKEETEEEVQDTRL
Procedure: Further experiments were done with PDSinh-A01 because of its greater inhibition potency for Cl^−/HCO3^− exchange than PDSinh-C01. To investigate PDSinh-A01 specificity, the major ion transport pathways in HBE cells were studied by short-circuit current (Isc) analysis. Cells were treated with IL-13 to increase Ca^2+-activated Cl^− conductance (CaCC) activity. For Isc measurements, cells were sequentially treated with amiloride to inhibit the epithelial sodium channel (ENaC), forskolin to activate the cystic fibrosis transmembrane conductance regulator (CFTR), CFTRinh-172 to inhibit CFTR, and ATP to activate CaCC. In the absence of PDSinh-A01, ion channel modulators produced the anticipated changes in Isc (FIG. 4A).
IL-13-treated HBE cells were cultured on Snapwell clear permeable supports (12 mm diameter, 0.4 μm polyester membrane, Costar, Corning, Corning, N.Y.). Short-circuit current was measured using symmetrical HCO3^−-buffered solutions (in mM: 120 NaCl, 5 KCl, 1 MgCl2, 1 CaCl2, 5 Hepes, 25 NaHCO3; pH 7.4) as described, with ion transport modulators added to both apical and basolateral bathing solutions. Cells were equilibrated with 95% O2/5% CO2 and maintained at 37° C. during data acquisition. Statistical analysis was by Student's t-test.

effect on intracellular alkalinization in response to gluconate gradient, IL-13-treated cultures (pendrin; IL-13-treated): inhibited
effect on pH changes in response to gluconate gradient, control cultures (pendrin; no added IL-13, 30 min): not altered
effect on CFTR activity (Isc response) (CFTR): did not affect the activity
Compound: Cn1nc(COc2cccc(F)c2)c2c1CCN(C(=O)Nc1ccc(Cl)cc1)C2 [PDSinh-A01]
